# According to the supplement of paper PMC6965134:
# ± gives the standard deviation of the averaged measurements.
# Assay: TIMS collisional cross section (CCS, N2) of the lipid ion; higher = larger ion cross section
# Conditions: ionization mode: positive, one isomer drawn
TIMS collisional cross section (sample type: Liver) [Å²],TIMS collisional cross section (sample type: plasma) [Å²],TIMS collisional cross section (sample type: HeLa) [Å²],SMILES
296.3,295.4,,CC/C=C\C/C=C\C/C=C\C/C=C\C/C=C\CCCC(=O)O[C@H](COC(=O)CCCCCCCCCCCCCCCCC)COP(=O)([O-])OCC[N+](C)(C)C [PC 18:0@_20:5] (ion (formula + adduct): [C46H82NO8P+H] 1+)
,300.7,,CCCCC/C=C\C/C=C\C/C=C\C/C=C\CCCCCC(=O)O[C@H](COC(=O)CCCCCCCCCCCCCCCCC)COP(=O)([O-])OCC[N+](C)(C)C [PC 18:0@_22:4] (ion (formula + adduct): [C48H88NO8P+H] 1+)
,299.3 ± 0.42,298.9,CCCCC/C=C\C/C=C\C/C=C\C/C=C\C/C=C\CCC(=O)O[C@H](COC(=O)CCCCCCCCCCCCCCCCC)COP(=O)([O-])OCC[N+](C)(C)C [PC 18:0@_22:5] (ion (formula + adduct): [C48H86NO8P+H] 1+)
297.5,,,CCCCC/C=C\C/C=C\CCCCCCCCCC(=O)O[C@H](COC(=O)CCCCCCCCCCCCCCCCC)COP(=O)([O-])OCC[N+](C)(C)C [PC 18:0_20:2@] (ion (formula + adduct): [C46H88NO8P+H] 1+)
299.3,301,,CCCCC/C=C\C/C=C\C/C=C\C/C=C\C/C=C\CCC(=O)O[C@H](COC(=O)CCCCCCCCCCCCCCCCC)COP(=O)([O-])OCC[N+](C)(C)C [PC 18:0_22:5] (ion (formula + adduct): [C48H86NO8P+H] 1+)
,,292.7,CCCCC/C=C\C/C=C\C/C=C\C/C=C\CCCC(=O)O[C@H](COC(=O)CCCCCCC/C=C\CCCCCCCC)COP(=O)([O-])OCC[N+](C)(C)C [PC 18:1@_20:4] (ion (formula + adduct): [C46H82NO8P+H] 1+)

# The remaining lines, values behind:
SMILES,TIMS collisional cross section (sample type: Liver) [Å²],TIMS collisional cross section (sample type: plasma) [Å²],TIMS collisional cross section (sample type: HeLa) [Å²]
CCCCCC/C=C\CCCCCCCCCC(=O)O[C@H](COC(=O)CCCCCCCCCCCCCCCCC)COP(=O)([O-])OCC[N+](C)(C)C [PC 18:0_18:1] (ion (formula + adduct): [C44H86NO8P+H] 1+),,295.2,294.7
CCCCC/C=C\C=C/CCCCCCCCC(=O)O[C@H](COC(=O)CCCCCCCCCCCCCCCCC)COP(=O)([O-])OCC[N+](C)(C)C [PC 18:0_18:2] (ion (formula + adduct): [C44H84NO8P+H] 1+),292.8,291.1,
CCCCC/C=C\C/C=C\C/C=C\C/C=C\CCCC(=O)O[C@H](COC(=O)CCCCCCCCCCCCCCCCC)COP(=O)([O-])OCC[N+](C)(C)C [PC 18:0_20:4] (ion (formula + adduct): [C46H84NO8P+H] 1+),295.6,,296.2
CC/C=C\C/C=C\C/C=C\C/C=C\C/C=C\C/C=C\CCC(=O)O[C@H](COC(=O)CCCCCCCCCCCCCCCCC)COP(=O)([O-])OCC[N+](C)(C)C [PC 18:0_22:6] (ion (formula + adduct): [C48H84NO8P+H] 1+),297.9,,
CC/C=C\C/C=C\C/C=C\C/C=C\CCCCC(=O)O[C@H](COC(=O)CCCCCCC/C=C\CCCCCCCC)COP(=O)([O-])OCC[N+](C)(C)C [PC 18:1@_18:4] (ion (formula + adduct): [C44H78NO8P+H] 1+),,,289.4
CC/C=C\C/C=C\C/C=C\C/C=C\C/C=C\CCCC(=O)O[C@H](COC(=O)CCCCCCCCC/C=C\CCCCCC)COP(=O)([O-])OCC[N+](C)(C)C [PC 18:1@_20:5] (ion (formula + adduct): [C46H80NO8P+H] 1+),290.9,,290.2
CC/C=C\C/C=C\C/C=C\C/C=C\C/C=C\CCCCCC(=O)O[C@H](COC(=O)CCCCCCCCC/C=C\CCCCCC)COP(=O)([O-])OCC[N+](C)(C)C [PC 18:1@_22:5] (ion (formula + adduct): [C48H84NO8P+H] 1+),297,,
